Assay results reported in PubChem BioAssay AID248 (DTP/NCI, 2004).
Inconclusive results and toxic doses are left out. Cut-off read from the data, not from the text of the source: active = T/C of 150% or more; inactive = T/C below 125%.

Tested on: L1210 leukemia ip in BDF1 mice, survival T/C
Experiment: NCI In Vivo Anticancer Drug Screen. Data for tumor model L1210 Leukemia (intraperitoneal) in B6D2F1 (BDF1) mice
Details: endpoint: mean survival time, higher = longer survival
Outline: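 Survival endpoint. Drug-treated group vs vehicle group, expressed as T divided by C. Tumor passaged by transplantation.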

Measured: T/C

Nc1nccnc1C(=O)O
inactive: dose: 25.0 mg/kg/injection, schedule: Q01DX009 (ip), vehicle: water 100 % of control | dose: 50.0 mg/kg/injection, schedule: Q01DX009 (ip), vehicle: water 96 % of control | dose: 100.0 mg/kg/injection, schedule: Q01DX009 (ip), vehicle: water 100 % of control | dose: 200.0 mg/kg/injection, schedule: Q01DX009 (ip), vehicle: water 96 % of control

COc1ccc(OC)c(NC(=O)NNC(=O)c2ccccc2Cl)c1
inactive: dose: 25.0 mg/kg/injection, schedule: Q01DX009 (ip), vehicle: saline with Tween-80 100 % of control | dose: 50.0 mg/kg/injection, schedule: Q01DX009 (ip), vehicle: saline with Tween-80 91 % of control | dose: 100.0 mg/kg/injection, schedule: Q01DX009 (ip), vehicle: saline with Tween-80 94 % of control

Cc1ccc(S(=O)(=O)NNC(=O)c2ccc[nH]2)cc1
inactive: dose: 75.0 mg/kg/injection, schedule: Q01DX001 (ip), vehicle: saline 101 % of control | dose: 150.0 mg/kg/injection, schedule: Q01DX001 (ip), vehicle: saline 101 % of control | dose: 300.0 mg/kg/injection, schedule: Q01DX001 (ip), vehicle: saline 96 % of control

O=C(CBr)c1cc(-c2cccc(I)c2)nc2c(Cl)cc(Cl)cc12
inactive: dose: 100.0 mg/kg/injection, schedule: Q04DX003 (ip), vehicle: saline with Tween-80 101 % of control | dose: 200.0 mg/kg/injection, schedule: Q04DX003 (ip), vehicle: saline with Tween-80 93 % of control | dose: 400.0 mg/kg/injection, schedule: Q04DX003 (ip), vehicle: saline with Tween-80 93 % of control

O/N=C/c1cnccn1
inactive: dose: 100.0 mg/kg/injection, schedule: Q01DX001 (ip), vehicle: saline 105 % of control | dose: 200.0 mg/kg/injection, schedule: Q01DX001 (ip), vehicle: saline 105 % of control

CC(=O)NC(N)=S
inactive: dose: 25.0 mg/kg/injection, schedule: Q04DX002 (ip), vehicle: Klucel (hydroxypropylcellulose) (HPC) 108 % of control | dose: 50.0 mg/kg/injection, schedule: Q04DX002 (ip), vehicle: Klucel (hydroxypropylcellulose) (HPC) 108 % of control | dose: 50.0 mg/kg/injection, schedule: Q04DX003 (ip), vehicle: Klucel (hydroxypropylcellulose) (HPC) 97 % of control | dose: 100.0 mg/kg/injection, schedule: Q04DX002 (ip), vehicle: Klucel (hydroxypropylcellulose) (HPC) 108 % of control | dose: 100.0 mg/kg/injection, schedule: Q04DX003 (ip), vehicle: Klucel (hydroxypropylcellulose) (HPC) 103 % of control

CN(C)C(=S)[S][Pb]([S]C(=S)N(C)C)([c]1ccccc1)[c]1ccccc1
inactive: dose: 100.0 mg/kg/injection, schedule: Q01DX001 (ip), vehicle: steriod suspending solution 114 % of control | dose: 200.0 mg/kg/injection, schedule: Q01DX001 (ip), vehicle: steriod suspending solution 111 % of control | dose: 400.0 mg/kg/injection, schedule: Q01DX001 (ip), vehicle: steriod suspending solution 109 % of control
